# Measurements published in patent US20050009840A1 (SUGEN, INC., priority 2003, published 2005).
# Where two headings read alike, the source gives them in different places.
# Target: T1, Met kinase domain (GST fusion protein) (Homo sapiens, UniProt P08581)
# T1 construct: Purified GST fusion protein containing the Met kinase domain
# Assay: Met transphosphorylation assay (ELISA, poly(glu-tyr) substrate);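 note: Cell-free ELISA with plate-bound poly(Glu:Tyr 4:1) phosphorylated by GST-fused Met kinase domain plus ATP and Mn2+, phosphotyrosine detected by anti-phosphotyrosine antibody with HRP and ABTS read-out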
# Type: biochemical
# Conditions: for inhibition at 20 µM: read-out: Met inhibition (printed in the Met IC50 column)
# Procedure: General procedure is as follows: a compound is introduced to cells expressing the test kinase, either naturally or recombinantly, for a selected period of time after which, if the test kinase is a receptor, a ligand known to activate the receptor is added. The cells are lysed and the lysate is transferred to the wells of an ELISA plate previously coated with a specific antibody recognizing the substrate of the enzymatic phosphorylation reaction. Non-substrate components of the cell lysate are washed away and the amount of phosphorylation on the substrate is detected with an antibody specifically recognizing phosphotyrosine compared with control cells that were not contacted with a test compound.
# Met Transphosphorylation Assay
# This assay is used to measure phosphotyrosine levels on a poly(glutamic acid:tyrosine, 4:1) substrate as a means for identifying agonists/antagonists of met transphosphorylation of the substrate.
# PBS, Gibco Catalog # 450-1300EB • 4. 50 mM HEPES • 5. […] Purified GST fusion protein containing the Met kinase domain, SUGEN, Inc. • 7. TBST Buffer. • 8. 10% aqueous (MilliQue H2O) DMSO. • 9. […] 2× Kinase Dilution Buffer: for 100 mL, mix 10 mL 1M HEPESat pH 7.5 with 0.4 mL 5% BSA/PBS, 0.2 mL 0.1 M sodium orthovanadate and 1 mL 5M sodium chloride in 88.4 mL dH2O. • 11. 4× ATP Reaction Mixture: for 10 mL, mix 0.4 mL 1 M manganese chloride and 0.02 mL 0.1 M ATP in 9.56 mL dH2O. • 12. 4× Negative Controls Mixture: for 10 mL, mix 0.4 mL 1 M manganese chloride in 9.6 mL dH2O. • 13. […] 500 mM EDTA. • 15. Antibody Dilution Buffer: for 100 mL, mix 10 mL 5% BSA/PBS, 0.5 mL 5% Carnation® Instant Milk in PBS and 0.1 mL 0.1 M sodium orthovanadate in 88.4 mL TBST. • 16. Rabbit polyclonal antophosphotyrosine antibody, SUGEN, Inc. • 17. Goat anti-rabbit horseradish peroxidase conjugated antibody, Biosource, Inc. • 18. ABTS Solution: for 1 L, mix 19.21 g citric acid, 35.49 g Na2HPO4 and 500 mg ABTS with sufficient dH2O to make 1 L. • 19. ABTS/H2O2: mix 15 mL ABST solution with 2μL H2O2 five minutes before use. • 20. 0.2 M HCl Procedure: • 1. Coat ELISA plates with 2 μg Poly(Glu-Tyr) in 100 μL PBS, hold-overnight at 4° C. • 2. Block plate with 150 μL of 5% BSA/PBS for 60 min. • 3. Wash plate twice with PBS then once with 50 mM Hepes buffer pH 7.4. • 4. Add 50 μl of the diluted kinase to all wells. (Purified kinase is diluted with Kinase Dilution Buffer. Final concentration should be 10 ng/well.) • 5. Add 25 μL of the test compound (in 4% DMSO) or DMSO alone (4% in dH2O) for controls to plate. • 6. Incubate the kinase/compound mixture for 15 minutes. • 7. Add 25 μL of 40 mM MnCl2 to the negative control wells. • 8. Add 25 μL ATP/MnCl2 mixture to the all other wells (except the negative controls). Incubate for 5 min. • 9. Add 25 μL 500 mM EDTA to stop reaction. • 10. Wash plate 3× with TBST. • 11. Add 100 μL rabbit polyclonal anti-Ptyr diluted 1:10,000 in Antibody Dilution Buffer to each well. Incubate, with shaking, at room temperature for one hour. • 12. Wash plate 3× with TBST. • 13. […] Add 100 μL per well and incubate at room temperature, with shaking, for one hour. • 14. Wash plate 1× with PBS. • 15. Add 100 μl of ABTS/H2O2 solution to each well. • 16. If necessary, stop the development reaction with the addition of 100 μl of 0.2M HCl per well. • 17.
# T1 sequence (P08581 1078-1345 limits assumed): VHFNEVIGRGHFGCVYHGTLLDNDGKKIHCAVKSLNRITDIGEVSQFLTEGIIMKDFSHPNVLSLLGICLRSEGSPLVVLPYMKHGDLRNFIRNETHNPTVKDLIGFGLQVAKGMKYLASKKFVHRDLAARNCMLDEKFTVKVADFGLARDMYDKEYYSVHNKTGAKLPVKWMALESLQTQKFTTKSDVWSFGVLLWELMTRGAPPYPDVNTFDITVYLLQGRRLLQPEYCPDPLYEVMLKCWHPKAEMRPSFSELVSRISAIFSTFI
Compound,IC50 (read-out: Met IC50) [µM],further results
"CC(=O)N1CCN(Cc2c[nH]c3ccc(-c4cnc(N)c(OCc5c(F)ccc(F)c5Cl)c4)cc23)CC1 [Example I-70, 1-(4-{5-[6-Amino-5-(2-chloro-3,6-difluoro-benzyloxy)-pyridin-3-yl]-1H-indol-3-ylmethyl}-piperazin-1-yl)-ethanone]",0.8,–
"C[C@@H]1CN(Cc2c[nH]c3ccc(-c4cnc(N)c(OCc5c(F)ccc(F)c5Cl)c4)cc23)C[C@H](C)O1 [Example I-71, 3-(2-Chloro-3,6-difluoro-benzyloxy)-5-[3-(2,6-dimethyl-morpholin-4-ylmethyl)-1H-indol-5-yl]-pyridin-2-ylamine]",2.71,–
"CC(=O)N[C@H]1CCN(Cc2c[nH]c3ccc(-c4cnc(N)c(OCc5c(F)ccc(F)c5Cl)c4)cc23)C1 [Example I-72, N-(1-{5-[6-Amino-5-(2-chloro-3,6-difluoro-benzyloxy)-pyridin-3-yl]-1H-indol-3-ylmethyl}-(3S)-pyrrolidin-3-yl)-acetamide]",0.95,–
"Nc1ncc(-c2ccc3[nH]cc(CN4CCCCC4)c3c2)cc1OCc1c(F)ccc(F)c1Cl [Example I-73, 3-(2-Chloro-3,6-difluoro-benzyloxy)-5-(3-piperidin-1-ylmethyl-1H-indol-5-yl)-pyridin-2-ylamine]",0.74,–
"Nc1ncc(-c2ccc3[nH]cc(CN4CCOCC4)c3c2)cc1OCc1c(F)ccc(F)c1Cl [Example I-74, 3-(2-Chloro-3,6-difluoro-benzyloxy)-5-(3-morpholin-4-ylmethyl-1H-indol-5-yl)-pyridin-2-ylamine]",1.4,–
"Nc1ncc(-c2ccc3[nH]cc(CN4CCCC4)c3c2)cc1OCc1c(F)ccc(F)c1Cl [Example I-75, 3-(2-Chloro-3,6-difluoro-benzyloxy)-5-(3-pyrrolidin-1-ylmethyl-1H-indol-5-yl)-pyridin-2-ylamine]",0.7,–
"CCOC(=O)c1cc2cc(-c3cnc(N)c(OCc4c(Cl)cccc4Cl)c3)ccc2[nH]1 [Example I-76, 5-[6-Amino-5-(2,6-dichloro-benzyloxy)-pyridin-3-yl]-1H-indole-2-carboxylic acid ethyl ester]",> 20,–
"Nc1ncc(-c2ccc3[nH]c(C(=O)O)cc3c2)cc1OCc1c(Cl)cccc1Cl [Example I-77, 5-[6-Amino-5-(2,6-dichloro-benzyloxy)-pyridin-3-yl]-1H-indole-2-carboxylic acid]",1.62,–
CN1CCN(C(=O)c2cc3cc(-c4cnc(N)c(OCc5c(Cl)cccc5Cl)c4)ccc3[nH]2)CC1 [Example I-78],0.18,–
"CN(C)[C@@H]1CCN(C(=O)c2cc3cc(-c4cnc(N)c(OCc5c(Cl)cccc5Cl)c4)ccc3[nH]2)C1 [Example I-79, {5-[6-Amino-5-(2,6-dichloro-benzyloxy)-pyridin-3-yl]-1H-indol-2-yl}-[(3R)-3-dimethylamino-pyrrolidin-1-yl]-methanone]",0.18,–
"Nc1ncc(-c2ccc3[nH]c(C(=O)N4CCC[C@@H]4CN4CCCC4)cc3c2)cc1OCc1c(Cl)cccc1Cl [Example I-80, {5-[6-Amino-5-(2,6-dichloro-benzyloxy)-pyridin-3-yl]-1H-indol-2-yl}-[(2R)-2-pyrrolidin-1-ylmethyl-pyrrolidin-1-yl]-methanone]",0.079,–
"Nc1ncc(-c2ccc3[nH]c(C(=O)NCCN4CCCC4)cc3c2)cc1OCc1c(Cl)cccc1Cl [Example I-81, 5-[6-Amino-5-(2,6-dichloro-benzyloxy)-pyridin-3-yl]-1H-indole-2-carboxylic acid (2-pyrrolidin-1-yl-ethyl)-amide]",1.2,–
"Nc1ncc(-c2ccc3[nH]c(C(=O)NCCN4CCOCC4)cc3c2)cc1OCc1c(Cl)cccc1Cl [Example I-82, 5-[6-Amino-5-(2,6-dichloro-benzyloxy)-pyridin-3-yl]-1H-indole-2-carboxylic acid (2-morpholin-4-yl-ethyl)-amide]",1.8,–
"CC(C)(C)OC(=O)N[C@H]1CCN(C(=O)c2cc3cc(-c4cnc(N)c(OCc5c(Cl)cccc5Cl)c4)ccc3[nH]2)C1 [Example I-83, (1-{5-[6-Amino-5-(2,6-dichloro-benzyloxy)-pyridin-3-yl]-1H-indole-2-carbonyl}-- (3S)-pyrrlidin-3-yl)-carbamic acid tert-butyl ester]",5,–
"Nc1ncc(-c2ccc3[nH]c(C(=O)N4CC[C@H](N)C4)cc3c2)cc1OCc1c(Cl)cccc1Cl [Example I-84, {5-(6-Amino-5-(2,6-dichloro-benzyloxy)-pyridin-3-yl]-1H-indol-2-yl}-[(3S)-amino-pyrrolidin-1-yl]-methanone]",0.14,–
"Nc1ncc(-c2ccc3[nH]c(C(=O)NCC(O)CN4CCCC4)cc3c2)cc1OCc1c(Cl)cccc1Cl (stereo not shown) [Example I-85, 5-[6-Amino-5-(2,6-dichloro-benzyloxy)-pyridin-3-yl]-1H-indole-2-carboxylic acid (2-hydroxy-3-pyrrolidin-1-yl-propyl)-amide]",0.7,–
"Nc1ncc(-c2ccc(O)cc2)cc1OCc1ccccc1 [Example I-86, 4-(6-Amino-5-benzyloxy-pyridin-3-yl)-phenol]",8.7,–
"Nc1ncc(-c2ccccc2)cc1OCc1ccc(F)cc1Cl [Example I-89, 3-(2-Chloro-4-fluoro-benzyloxy)-5-phenyl-pyridin-2-ylamine]",17,–
"Nc1ncc(-c2ccccc2)cc1OCc1ccccc1Cl [Example I-90, 3-(2-Chloro-benzyloxy)-5-phenyl-pyridin-2-ylamine]",–,inhibition at 20 µM: 48%
"Nc1ncc(-c2ccccc2)cc1OCc1cc(Cl)ccc1Cl [Example I-91, 3-(2,5-Dichloro-benzyloxy)-5-phenyl-pyridin-2-ylamine]",–,inhibition at 20 µM: 48%

Compound,IC50 (read-out: Met IC50) [µM],further results
"Nc1ncc(-c2ccccc2)cc1OCc1cc(C(F)(F)F)ccc1Cl [Example I-92, 3-(2-Chloro-5-trifluoromethyl-benzyloxy)-5-phenyl-pyridin-2-ylamine]",> 20,–
"Nc1ncc(-c2ccccc2)cc1OCc1cc(F)c(Cl)cc1Cl [Example I-93, 3-(2,4-Dichloro-5-fluoro-benzyloxy)-5-phenyl-pyridin-2-ylamine]",> 20,–
"Nc1ncc(-c2ccccc2)cc1OCc1cccc(C(F)(F)F)c1Cl [Example I-94, 3-(2-Chloro-3-trifluoromethyl-benzyloxy)-5-phenyl-pyridin-2-ylamine]",> 20,–
"Nc1ncc(-c2ccccc2)cc1OCc1c(F)ccc(F)c1Cl [Example I-95, 3-(2 Chloro-3,6-difluoro-benzyloxy)-5-phenyl-pyridin-2-ylamine]",0.64,–
"Nc1ncc(-c2ccccc2)cc1OCc1ccc(Cl)c(Cl)c1 [Example I-96, 3-(3,4-Dichloro-benzyloxy)-5-phenyl-pyridin-2-ylamine]",16.2,–
"N#Cc1ccccc1COc1cc(-c2ccccc2)cnc1N [Example I-97, 2-(2-Amino-5-phenyl-pyridin-3-yloxymethyl)-benzonitrile]",–,IC50 (Met IC50): 12.2 µM
"Cc1ccc(F)c(COc2cc(-c3ccccc3)cnc2N)c1Cl [Example I-98, 3-(2-Chloro-6-fluoro-3-methyl-benzyloxy)-5-phenyl-pyridin-2-ylamine]",7.6,–
"Nc1ncc(-c2ccccc2)cc1OCc1c(F)ccc(F)c1F [Example I-99, 5-Phenyl-3-(2,3,6-trifluoro-benzyloxy)-pyridin-2-ylamine]",3.9,–
"Nc1ncc(-c2ccccc2)cc1OCc1c(F)cccc1F [Example I-100, 3-(2,6-Difluoro-benzyloxy)-5-phenyl-pyridin-2-ylamine]",9.3,–
"Cc1ccc(F)c(COc2cc(-c3ccccc3)cnc2N)c1F [Example I-101, 3-(2,6-Difluoro-3-methyl-benzyloxy)-5-phenyl-pyridin-2-ylamine]",12,–
"Nc1ncc(-c2ccccc2)cc1OCc1c(F)ccc(Cl)c1F [Example I-102, 3-(3-Chloro-2,6-difluoro-benzyloxy)-5-phenyl-pyridin-2-ylamine]",9.6,–
"Nc1ncc(-c2ccccc2)cc1OCc1c(F)cccc1Cl [Example I-103, 3-(2-Chloro-8-fluoro-benzyloxy)-5-phenyl-pyridin-2-ylamine]",7.91,–
"COc1ccc(COc2cc(-c3ccccc3)cnc2N)cc1F [Example I-104, 3-(3-Fluoro-4-methoxy-benzyloxy)-5-phenyl-pyridin-2-ylamine]",15,–
"CS(=O)(=O)Nc1cccc(COc2cc(-c3ccccc3)cnc2N)c1 [Example I-105, N-[3-(2-Amino-5-phenyl-pyridin-3-yloxymethyl)-phenyl]-methanesulfonamide]",> 20,–
"Nc1ncc(-c2ccc(OCCN3CCOCC3)cc2)cc1OCc1cccc([N+](=O)[O-])c1 [Example I-106, 5-[4-(2-morpholin-4-yl-ethoxy)-phenyl]-3-(3-nitro-benzyloxy)-pyridin-2-ylamine]",12.6,–
"Nc1ncc(-c2ccc(OCCN3CCOCC3)cc2)cc1OCc1cccc2ccccc12 [Example I-107, 5-[4-(2-Morpholin-4-yl-ethoxy)-phenyl]-3-(naphthalen-1-ylmethoxy)-pyridin-2-ylamine]",7.7,–
"Nc1ncc(-c2ccc(OCCN3CCOCC3)cc2)cc1OCc1c(F)ccc(F)c1Cl [Example I-108, 3-(2-Chloro-3,6-difluoro-benzyloxy)-5-[4-(2-morpholin-4-yl-ethoxy)-phenyl]-pyridin-2-ylamine]",0.21,–
"CC(C)c1ccc(NC(=O)C(Oc2cc(-c3ccc(OCCN4CCOCC4)cc3)cnc2N)c2ccccc2)cc1 (stereo not shown) [Example I-109, 2-{2-Amino-5-[4-(2-morpholin-4-yl-ethoxy)-phenyl]-pyridin-3-yloxy}-N-(4-isopropyl-phenyl)-2-phenyl-acetamide]",> 20,–
"Nc1ncc(-c2ccc(OCCN3CCOCC3)cc2)cc1OCc1csc2ccc(Cl)cc12 [Example I-110, 3-(5-Chloro-benzo[b]thiophen-3-ylmethoxy)-5-[4-(2-morpholin-4-yl-ethoxy)-phenyl]-pyridin-2-ylamine]",2.4,–
"Nc1ncc(-c2ccc(C(=O)N3CCC[C@@H]3CN3CCCC3)cc2)cc1OCc1ccc(F)cc1C(F)(F)F [Example I-111, {4-[6-amino-5-(4-fluoro-2-trifluoromethyl-benzyloxy)-pyridin-3-yl]-phenyl)[(2R)-2-pyrrolidin-1-ylmethyl-pyrrolidin-1-yl]-methanone]",1.51,–
